Reference: US20220386606A1, “SPECIFICALLY SUBSTITUTED 3-PHENYL-5-SPIROCYCLOPENTYL-3-PYRROLIN-2-ONES AND THEIR USE AS HERBICIDES” (Bayer Aktiengesellschaft, priority 2019, published 2022)

Legend:
ALOMY [1] = experiment: Pre-emergence herbicidal action against ALOMY; format: in vivo, Alopecurus myosuroides; conditions: 320 g/ha, scored visually after 3 weeks vs untreated controls
How it was run: (§1)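 Pre-emergence soil-surface application: WP/EC in water, 600 to 800 L/ha, + 0.2% wetting agent, onto soil-covered seeds in sandy loam. Greenhouse, 3 wk. Visual % activity vs untreated (100% = dead).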

AVEFA [2] = experiment: Pre-emergence herbicidal action against AVEFA; format: in vivo, Avena fatua; conditions: 320 g/ha, scored visually after 3 weeks vs untreated controls
How it was run: as §1

DIGSA [3] = experiment: Pre-emergence herbicidal action against DIGSA; format: in vivo, Digitaria sanguinalis; conditions: 320 g/ha, scored visually after 3 weeks vs untreated controls
How it was run: as §1

ECHCG [4] = experiment: Pre-emergence herbicidal action against ECHCG; format: in vivo, Echinochloa crus-galli; conditions: 320 g/ha, scored visually after 3 weeks vs untreated controls
How it was run: as §1

LOLRI [5] = experiment: Pre-emergence herbicidal action against LOLRI (Table 8, titled post-emergence at 320 g/ha); format: in vivo, Lolium rigidum; conditions: table stands in the pre-emergence section
How it was run: as §1

SETVI [6] = experiment: Pre-emergence herbicidal action against SETVI; format: in vivo, Setaria viridis; conditions: 320 g/ha, scored visually after 3 weeks vs untreated controls
How it was run: as §1

ABUTH [7] = experiment: Pre-emergence herbicidal action against ABUTH; format: in vivo, Abutylon threophrasti; conditions: 320 g/ha
How it was run: as §1

AMARE = experiment: Pre-emergence herbicidal action against AMARE; format: in vivo, Amaranthus retroflexus; conditions: 320 g/ha
How it was run: as §1

MATIN = experiment: Pre-emergence herbicidal action against MATIN; format: in vivo; conditions: 320 g/ha
How it was run: as §1

POLCO = experiment: Pre-emergence herbicidal action against POLCO; format: in vivo, Polygonum convolvulus; conditions: 320 g/ha
How it was run: as §1

VIOTR [8] = experiment: Pre-emergence herbicidal action against VIOTR; format: in vivo, Viola tricolor; conditions: 320 g/ha
How it was run: as §1

VERPE [9] = experiment: Pre-emergence herbicidal action against VERPE; format: in vivo, Veronica persica; conditions: 320 g/ha
How it was run: as §1

ALOMY [10] = experiment: Post-emergence herbicidal action against ALOMY; format: in vivo, Alopecurus myosuroides; conditions: 80 g/ha, visual assessment after about 3 weeks
How it was run: (§2)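 Plants at the one-leaf stage receive a foliar spray of the formulated compound, with a 600 to 800 l/ha water rate and 0.2% wetting agent. Percent activity is judged by eye after roughly 3 weeks in the greenhouse.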

AVEFA [11] = experiment: Post-emergence herbicidal action against AVEFA; format: in vivo, Avena fatua; conditions: 80 g/ha, visual assessment after about 3 weeks
How it was run: as §2

DIGSA [12] = experiment: Post-emergence herbicidal action against DIGSA; format: in vivo, Digitaria sanguinalis; conditions: 80 g/ha, visual assessment about 3 weeks after treatment vs untreated controls
How it was run: as §2

ECHCG [13] = experiment: Post-emergence herbicidal action against ECHCG; format: in vivo, Echinochloa crus-galli; conditions: 80 g/ha, visual assessment about 3 weeks after treatment vs untreated controls
How it was run: as §2

LOLRI [14] = experiment: Post-emergence herbicidal action against LOLRI; format: in vivo, Lolium rigidum; conditions: 80 g/ha, visual assessment about 3 weeks after treatment vs untreated controls
How it was run: as §2

SETVI [15] = experiment: Post-emergence herbicidal action against SETVI; format: in vivo, Setaria viridis; conditions: 80 g/ha, visual assessment about 3 weeks after treatment vs untreated controls
How it was run: as §2

VERPE [16] = experiment: Post-emergence herbicidal action against VERPE; format: in vivo, Veronica persica; conditions: 80 g/ha, visual assessment about 3 weeks after treatment vs untreated controls
Procedure: (§3) Seeds of monocotyledonous and dicotyledonous weed and crop plants are laid out in sandy loam soil in wood-fiber pots, covered with soil and cultivated in a greenhouse under good growth conditions. 2 to 3 weeks after sowing, the test plants are treated at the one-leaf stage. The compounds of the invention, formulated in the form of wettable powders (WP) or as emulsion concentrates (EC), are then sprayed onto the green parts of the plants as aqueous suspension or emulsion at a water application rate equating to 600 to 800 l/ha with addition of 0.2% wetting agent. After the test plants have been left to stand in the greenhouse under optimal growth conditions for about 3 weeks, the action of the preparations is assessed visually in comparison to untreated controls (herbicidal action in percent (%): 100% activity=the plants have died, 0% activity=like control plants).

HORMU = experiment: Post-emergence herbicidal action against HORMU; format: in vivo, Hordeum murinum; conditions: 80 g/ha, visual assessment about 3 weeks after treatment vs untreated controls
How it was run: as §2

ABUTH [17] = experiment: Post-emergence herbicidal action against ABUTH; format: in vivo, Abutylon threophrasti; conditions: 80 g/ha, visual assessment about 3 weeks after treatment vs untreated controls
How it was run: as §2

VIOTR [18] = experiment: Post-emergence herbicidal action against VIOTR; format: in vivo, Viola tricolor; conditions: 80 g/ha, visual assessment about 3 weeks after treatment vs untreated controls
Procedure: as §3

Row | SMILES | Pre-emergence action against ALOMY in % (ALOMY [1]) [%] | Pre-emergence action against AVEFA in % (AVEFA [2]) [%] | Pre-emergence action against DIGSA in % (DIGSA [3]) [%] | Pre-emergence action against ECHCG in % (ECHCG [4]) [%] | Pre-emergence herbicidal action against LOLRI in % (LOLRI [5]) [%] | Pre-emergence action against SETVI in % (SETVI [6]) [%] | Pre-emergence action against ABUTH in % (ABUTH [7]) [%] | Pre-emergence action against AMARE in % (AMARE) [%] | Pre-emergence action against MATIN in % (MATIN) [%] | Pre-emergence action against POLCO in % (POLCO) [%] | Pre-emergence action against VIOTR in % (VIOTR [8]) [%] | Pre-emergence action against VERPE in % (VERPE [9]) [%] | Post-emergence action against ALOMY in % (ALOMY [10]) [%] | Post-emergence action against AVEFA in % (AVEFA [11]) [%] | Post-emergence action against DIGSA in % (DIGSA [12]) [%] | Post-emergence action against ECHCG in % (ECHCG [13]) [%] | Post-emergence action against LOLRI in % (LOLRI [14]) [%] | Post-emergence action against SETVI in % (SETVI [15]) [%] | Post-emergence action against VERPE in % (VERPE [16]) [%] | Post-emergence action against ABUTH in % (ABUTH [17]) [%] | other results
1 | CC#Cc1cc(C)c(C2=C(OC(=O)OCC)C3(CCC(COCC)C3)NC2=O)c(Cl)c1 (centres unmarked) [Example P-28] | 100 | 100 | 100 | 100 | 100 | 100 | 90 | 100 | 90 | 80 | 100 | 100 | 100 | 90 | 100 | 100 | 100 | 100 | 80 |  | 
2 | CC#Cc1cc(Cl)c(C2=C(OC(=O)OCC)C3(CCC(COCC)C3)NC2=O)c(CC)c1 (centres unmarked) [Example P-21] |  |  |  |  |  |  |  |  |  |  |  |  | 100 | 100 | 100 | 100 | 100 | 100 | 80 |  | Post-emergence action against HORMU in % (HORMU): 100%
3 | CC#Cc1cc(C)c(C2=C(O)C3(CCC(COCC)C3)NC2=O)c(OC)c1 (centres unmarked) [Example I-32] | 100 | 90 | 100 | 100 | 100 | 100 |  |  |  |  | 100 |  | 100 | 100 | 100 | 100 | 100 |  | 80 | 80 | Post-emergence action against VIOTR in % (VIOTR [18]): 80%
4 | CC#Cc1cc(C)c(C2=C(O)C3(CCC(COCC)C3)NC2=O)c(OC)c1 (centres unmarked) [Example I-30] | 100 | 90 | 100 | 100 | 100 | 100 |  | 100 | 90 |  | 100 |  | 90 | 80 | 100 | 100 | 100 |  | 80 | 80 | 
5 | CC#Cc1cc(C)c(C2=C(OC(=O)OCC)C3(CCC(COCC)C3)NC2=O)c(F)c1 (centres unmarked) [Example P-54] | 100 | 90 | 100 | 100 | 100 | 100 |  | 100 |  | 80 | 100 | 80 | 100 | 100 | 100 | 100 | 100 |  | 80 | 80 | 
6 | CC#Cc1cc(C)c(C2=C(OC(=O)C(C)C)C3(CCC(COCC)C3)NC2=O)c(Cl)c1 (centres unmarked) [Example P-29] | 100 | 100 | 100 | 100 | 100 | 100 | 80 | 100 | 90 | 90 | 100 | 100 | 100 | 90 | 100 | 100 | 100 | 100 | 80 |  | 
7 | CC#Cc1cc(C)c(C2=C(OC(=O)OCC)C3(CCC(COC)C3)NC2=O)c(Br)c1 (centres unmarked) [Example P-30] | 100 | 100 | 100 | 100 | 100 | 100 | 80 | 100 |  | 80 | 100 | 80 | 100 | 90 | 100 | 100 | 100 | 100 | 80 | 80 | 
